{"source": "patent US20160271063A1", "about": "“STERILE S-ADENOSYL METHIONINE WITH A HIGH CONTENT OF ACTIVE ISOMER FOR INJECTABLE SOLUTIONS, AND PROCEDURE FOR OBTAINING IT” (GNOSIS S.P.A., priority 2013, published 2016)", "key": {"[1]": {"test": "Particle size (laser particle-size distribution analysis)", "format": "physicochemical", "settings": "for Particle size D50μ: Test in Mobile Minor unit, IN/OUT temperature differs per test"}, "[2]": {"test": "Residual humidity of the powder", "format": "physicochemical", "settings": "for Humidity %: Test in Mobile Minor unit, IN/OUT temperature differs per test"}, "[3]": {"test": "S,S isomer content by HPLC (area of active isomer to sum of both isomers)", "format": "physicochemical", "settings": "for S,S Stereoisomer %: Test in Mobile Minor unit, IN/OUT temperature differs per test; for enantiomeric excess of S,S isomer: sterile spray-dried product", "protocol": "The S-adenosyl methionine of the invention preferably has a water content below 2% by weight and an active enantiomer content exceeding 75% of the total SAMe. The enantiomer content is determined by the percentage of the area of active isomer to the sum of the area of both isomers in the HPLC analysis."}, "[4]": {"settings": "sterile spray-dried product"}, "[5]": {"test": "Stability of SAMe salt solutions", "format": "physicochemical"}, "BET surface area": {"test": "BET surface area", "format": "physicochemical"}, "[6]": {"test": "Microscope appearance of particles", "format": "physicochemical"}, "[7]": {"settings": "spray-dried, TIN 150° C., TOUT 95-96° C."}, "[8]": {"settings": "Table 2, comparison with the medicament on the market"}}, "note": "“Also recorded” adds a separate entry of the source.", "data": [{"smiles": "C[S+](CC[C@H](N)C(=O)[O-])C[C@H]1O[C@@H](n2cnc3c(N)ncnc32)[C@H](O)[C@@H]1O.O=S(=O)(O)CCCCS(=O)(=O)O", "note": "(single isomer, unassigned) [Example 4, SAMe 1,4-butanedisulphonate]", "values": [{"measurement": "Particle size D50μ", "setting": "[1]", "value": 8, "unit": "μ"}, {"measurement": "Humidity %", "setting": "[2]", "value": 1.63, "unit": "%"}, {"measurement": "S,S Stereoisomer %", "setting": "[3]", "value": 72.60, "unit": "%"}, {"measurement": "enantiomeric excess of S,S isomer", "setting": "[3]", "value": "exceeding 80%"}, {"measurement": "endotoxin level", "setting": "[4]", "value": "less than 0.118 U/g"}]}, {"smiles": "C[S+](CC[C@H](N)C(=O)[O-])C[C@H]1O[C@@H](n2cnc3c(N)ncnc32)[C@H](O)[C@@H]1O.O=S(=O)(O)CCCCS(=O)(=O)O", "note": "(single isomer, unassigned) [Example 3, SAMe 1,4-butanedisulphonate]", "values": [{"measurement": "Particle size D50μ", "setting": "[1]", "value": 9, "unit": "μ"}, {"measurement": "Humidity %", "setting": "[2]", "value": 1.63, "unit": "%"}, {"measurement": "S,S Stereoisomer %", "setting": "[3]", "value": 75.65, "unit": "%"}, {"measurement": "enantiomeric excess of S,S isomer", "setting": "[3]", "value": "exceeding 80%"}, {"measurement": "endotoxin level", "setting": "[4]", "value": "less than 0.118 U/g"}]}, {"smiles": "C[S+](CC[C@H](N)C(=O)[O-])C[C@H]1O[C@@H](n2cnc3c(N)ncnc32)[C@H](O)[C@@H]1O.O=S(=O)(O)CCCCS(=O)(=O)O", "note": "(single isomer, unassigned) [Example 7, SAMe 1,4-butanedisulphonate, reference compound]", "values": [{"measurement": "Particle size D50μ", "setting": "[1]", "value": 10, "unit": "μ"}, {"measurement": "Humidity %", "setting": "[2]", "value": 2.65, "unit": "%"}, {"measurement": "enantiomeric ratio, S,S isomer", "setting": "[3]", "value": 70, "unit": "%"}, {"measurement": "S,S Stereoisomer %", "setting": "[3]", "value": 75.95, "unit": "%"}]}, {"smiles": "C[S+](CC[C@H](N)C(=O)[O-])C[C@H]1O[C@@H](n2cnc3c(N)ncnc32)[C@H](O)[C@@H]1O.O=S(=O)(O)CCCCS(=O)(=O)O", "note": "(some centres unmarked) [Example 1, SAMe 1,4-butanedisulphonate]", "values": [{"measurement": "particle size D50", "setting": "[1]; [7]", "value": 10, "unit": "microns"}, {"measurement": "residual humidity", "setting": "[2]; [7]", "value": 1.50, "unit": "%"}, {"measurement": "stereoisomeric ratio", "setting": "[3]; [7]", "value": 73.77, "unit": "%"}]}, {"smiles": "C[S+](CC[C@H](N)C(=O)[O-])C[C@H]1O[C@@H](n2cnc3c(N)ncnc32)[C@H](O)[C@@H]1O", "note": "(some centres unmarked) [SAMe SD4, S-adenosyl methionine]", "values": [{"measurement": "stability of the solution", "setting": "[5]; at ambient temperature", "value": "break down rapidly"}, {"measurement": "stability of the solution", "setting": "[5]; stored at a cold temperature, unless microbial contamination is present", "value": "stable"}]}, {"smiles": "C[S+](CC[C@H](N)C(=O)[O-])C[C@H]1O[C@@H](n2cnc3c(N)ncnc32)[C@H](O)[C@@H]1O.O=S(=O)(O)CCCCS(=O)(=O)O", "note": "(single isomer, unassigned) [Example 5, SAMe 1,4-butanedisulphonate]", "values": [{"measurement": "Laser particle-size distribution analysis, 10%", "setting": "[1]; 10%", "value": 10, "unit": "% = 14.4 micron"}, {"measurement": "Laser particle-size distribution analysis, 50%", "setting": "[1]; 50%", "value": 50, "unit": "% = 28.7 micron"}, {"measurement": "Laser particle-size distribution analysis, 90%", "setting": "[1]; 90%", "value": 90, "unit": "% = 53.8 micron"}, {"measurement": "Particle size D50μ", "setting": "[1]", "value": 9, "unit": "μ"}, {"measurement": "Humidity", "setting": "[2]; [8]", "value": 1.20, "unit": "%"}, {"measurement": "Humidity %", "setting": "[2]", "value": 1.88, "unit": "%"}, {"measurement": "SS isomer (%)", "setting": "[3]; [8]", "value": 73.1, "unit": "%"}, {"measurement": "S,S Stereoisomer %", "setting": "[3]", "value": 76.63, "unit": "%"}, {"measurement": "BET surface area (m2/g)", "setting": "BET surface area", "value": 0.3460, "unit": "m2/g"}, {"measurement": "Microscope", "setting": "[6]", "value": "Regular,; also recorded: spherical particles"}]}]}
